Experimental data taken from US8637511B2, “Aminopyrimidines useful as kinase inhibitors” (Vertex Pharmaceuticals Incorporated, priority 2005, dated 2014).
Where “and” joins values, the source holds several entries; their conditions need not be identical. Equal entries are not always repeated. Where two headings read alike, the source gives them in different places.

Assays:
Type in all cases: biochemical
Aurora-1 (Aurora B) = Aurora-1 (Aurora B) (Homo sapiens, UniProt Q96GD4); test: Aurora-1 (Aurora B) inhibition assay (radiometric); details: read-out: Aurora B kinase Ki value
Sequence of Aurora-1 (Aurora B) (Q96GD4 whole entry): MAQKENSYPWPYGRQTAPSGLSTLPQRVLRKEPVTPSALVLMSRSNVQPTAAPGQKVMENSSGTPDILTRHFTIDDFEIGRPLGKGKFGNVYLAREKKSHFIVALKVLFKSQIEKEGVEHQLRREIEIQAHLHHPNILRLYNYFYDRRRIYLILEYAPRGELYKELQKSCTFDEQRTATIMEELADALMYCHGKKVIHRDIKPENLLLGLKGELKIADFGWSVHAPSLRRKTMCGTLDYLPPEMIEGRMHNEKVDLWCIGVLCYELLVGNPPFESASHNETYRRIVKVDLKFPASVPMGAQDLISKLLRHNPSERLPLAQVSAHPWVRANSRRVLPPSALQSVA
Outline: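 Ki values come from non-linear regression of background-corrected initial-rate data. The enzyme was preincubated 10 min at 25° C with compound, then reacted 3 h with 800 μM (final) [γ-^33P]-ATP in HEPES pH 7.5/MgCl2/BSA/glycerol buffer. The reaction was stopped with phosphoric acid and substrate-bound ^33P counted on phosphocellulose.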

Aurora-2 (Aurora A) = molecular target: T1, Aurora-2 (Aurora A) (Homo sapiens, UniProt O14965); test: Aurora-2 (Aurora A) inhibition assay, coupled enzyme
T1 sequence (O14965 1-403): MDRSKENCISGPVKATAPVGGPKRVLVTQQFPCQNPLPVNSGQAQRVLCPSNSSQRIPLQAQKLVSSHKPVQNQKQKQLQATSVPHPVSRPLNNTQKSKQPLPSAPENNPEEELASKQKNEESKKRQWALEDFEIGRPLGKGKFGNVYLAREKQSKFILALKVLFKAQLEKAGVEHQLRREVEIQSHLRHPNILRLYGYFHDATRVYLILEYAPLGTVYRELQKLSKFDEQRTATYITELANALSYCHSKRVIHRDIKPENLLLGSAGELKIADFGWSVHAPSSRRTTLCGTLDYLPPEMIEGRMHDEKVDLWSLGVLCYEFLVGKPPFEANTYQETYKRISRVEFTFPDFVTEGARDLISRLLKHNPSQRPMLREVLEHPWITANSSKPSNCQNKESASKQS
Outline: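 These rates came from NADH consumption coupled through pyruvate kinase and lactate dehydrogenase (100 mM Hepes pH 7.5, 10 mM MgCl2, 300 μM NADH). Aurora-2 was present at 40 nM, and the reaction ran at 30 °C after a 10 min preincubation.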

FLT-3 = molecular target: T2, FLT-3 (Homo sapiens, UniProt P36888); test: FLT-3 inhibition assay, radiometric filter-binding
T2 sequence (P36888 27-993): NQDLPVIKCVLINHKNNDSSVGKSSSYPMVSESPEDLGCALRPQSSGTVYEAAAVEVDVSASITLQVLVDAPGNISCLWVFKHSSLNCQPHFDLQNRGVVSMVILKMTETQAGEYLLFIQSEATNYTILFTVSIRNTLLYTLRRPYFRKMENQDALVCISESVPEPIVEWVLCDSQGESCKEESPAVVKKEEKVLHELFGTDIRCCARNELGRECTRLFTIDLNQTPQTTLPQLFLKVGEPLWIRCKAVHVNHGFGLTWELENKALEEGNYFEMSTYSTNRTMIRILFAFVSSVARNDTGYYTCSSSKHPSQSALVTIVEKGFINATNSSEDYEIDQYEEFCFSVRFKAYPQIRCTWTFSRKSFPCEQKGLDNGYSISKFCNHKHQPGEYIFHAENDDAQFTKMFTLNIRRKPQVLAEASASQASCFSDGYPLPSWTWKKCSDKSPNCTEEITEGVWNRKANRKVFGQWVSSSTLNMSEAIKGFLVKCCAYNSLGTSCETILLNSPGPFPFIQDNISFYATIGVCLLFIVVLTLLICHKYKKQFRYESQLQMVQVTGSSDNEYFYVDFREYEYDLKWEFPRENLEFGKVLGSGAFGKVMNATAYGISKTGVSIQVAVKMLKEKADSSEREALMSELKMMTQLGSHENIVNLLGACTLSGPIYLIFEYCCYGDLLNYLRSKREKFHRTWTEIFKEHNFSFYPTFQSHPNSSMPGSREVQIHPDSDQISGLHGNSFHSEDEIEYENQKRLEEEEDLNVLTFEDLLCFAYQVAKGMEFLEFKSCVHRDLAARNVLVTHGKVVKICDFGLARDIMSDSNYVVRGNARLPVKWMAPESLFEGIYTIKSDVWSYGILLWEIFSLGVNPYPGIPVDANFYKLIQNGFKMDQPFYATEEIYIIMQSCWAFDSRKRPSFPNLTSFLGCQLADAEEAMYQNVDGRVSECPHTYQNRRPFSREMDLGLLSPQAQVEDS

[1] = read-out: Aurora A kinase Ki value

| SMILES | Ki (Aurora-1 (Aurora B)) | Ki (Aurora-2 (Aurora A)) [nM] | Ki (FLT-3) [nM] | Ki (Aurora-2 (Aurora A); [1]) [nM] | Ki (FLT-3; read-out: FLT-3 Ki value) [nM] |
| --- | --- | --- | --- | --- | --- |
| Cc1cc(Nc2cc(N3CCC3)nc(Sc3ccc(C(=O)NCc4ccccc4Cl)cc3)n2)n[nH]1 [Compound 24] | 50 to 2000 nM | 5 to 200 | 150 to 1000 |  |  |
| Cc1cc(Nc2cc(N3CC(F)(C4CC4)C3)nc(Sc3ccc(N)cc3)n2)[nH]n1 [Compound 209] | 50 to 2000 nM |  | ≤ 50 | 5 to 200 |  |
| COc1ccc(C(=O)Nc2ccc(Sc3nc(Nc4cc(C)n[nH]4)cc(N4CCC4)n3)cc2)cc1 [Compound 117] | 10 to 50 nM |  |  | 1 to 5 | 150 to 1000 |
| Cc1cc(Nc2cc(N3CCC3)nc(Sc3ccc(NC(=O)C(C)(C)C)cc3)n2)[nH]n1 [Compound 114] | 10 to 50 nM |  |  | 1 to 5 | 150 to 1000 |
| Cc1cc(Nc2cc(N3CCC3)nc(Sc3cccc(NC(=O)c4ccccc4Cl)c3)n2)[nH]n1 [Compound 49] | 50 to 2000 nM |  | 150 to 1000 | 5 to 200 |  |
| CC(=O)Nc1cccc(Sc2nc(Nc3cc(C)n[nH]3)cc(N3CC(F)(C4CC4)C3)n2)c1 [Compound 188] | 10 to 50 nM |  | 50 to 150 | 5 to 200 |  |
| CCC(=O)Nc1ccc(Sc2nc(Nc3cc(C)n[nH]3)cc(N3CC(C)(C#N)C3)n2)cc1 [Compound 79] | 10 to 50 nM and < 25 nM |  |  | 1 to 5 | ≤ 50 |
| CCC(=O)Nc1ccc(Sc2nc(Nc3cc(C)n[nH]3)cc(N3CC(C)(NC(C)(C)C)C3)n2)cc1 [Compound 80] | 10 to 50 nM |  |  | 1 to 5 | 50 to 150 |
| Cc1ccc(C(=O)Nc2ccc(Sc3nc(Nc4cc(C)n[nH]4)cc(N4CCC4)n3)cc2)cn1 [Compound 145] | 50 to 2000 nM |  |  | 5 to 200 | 150 to 1000 |
| Cc1ccc2cc(Sc3nc(Nc4cc(C)[nH]n4)cc(N4CC(C5CCC(F)C5)C4)n3)ccc2n1 (stereo not drawn) [Compound 198] | 10 to 50 nM and < 25 nM |  | 50 to 150 | 1 to 5 |  |
| COC1CN(c2cc(Nc3cc(C)n[nH]3)nc(Sc3ccc(NC(=O)c4ccccc4C(F)(F)F)cc3)n2)C1 [Compound 126] | ≤ 10 nM |  | 50 to 150 | ≤ 1 |  |
| CCNC(=O)c1ccc(Sc2nc(Nc3cc(C)[nH]n3)cc(N3CCC3)n2)cc1 [Compound 20] | 10 to 50 nM | 5 to 200 | 50 to 150 |  |  |
| CC1=NN=C(Nc2cc(N3CCC3)nc(Sc3ccc(NC(=O)c4cccc(C(F)(F)F)c4F)cc3)n2)C1 [Compound 55] | ≤ 10 nM | ≤ 1 | 150 to 1000 |  |  |
| Cc1cnc(Nc2cc(N3CC(N(C)C)C3)nc(Sc3ccc(NC(=O)C4CC4)cc3)n2)s1 [Compound 1] | 10 to 50 nM |  | 50 to 150 | 5 to 200 |  |
| Cc1cc(Nc2cc(N3CCC3)nc(Sc3ccc(NC(=O)c4ccccc4N(C)C)cc3)n2)[nH]n1 [Compound 124] | 50 to 2000 nM |  |  | 5 to 200 | 150 to 1000 |
| CCC(=O)Nc1ccc(Sc2nc(Nc3cc(C)n[nH]3)cc(N3CC(C)(O)C3)n2)cc1 [Compound 71] | 10 to 50 nM |  |  | 1 to 5 | 50 to 150 |
| CCC(=O)Nc1ccc(Sc2nc(Nc3cc(C)[nH]n3)cc(N3CCC3)n2)cc1 [Compound 14] | 10 to 50 nM and < 25 nM |  |  | 1 to 5 | 50 to 150 |
| Cc1cc(Nc2cc(N3CC(N4CCOCC4)C3)nc(Sc3ccc(NC(=O)CC(F)(F)F)cc3)n2)[nH]n1 [Compound 199] | ≤ 10 nM |  | ≤ 50 | ≤ 1 |  |
| Cc1cc(Nc2cc(N3CCC3)nc(Sc3ccc(NC(=O)C4CCCCC4)cc3)n2)n[nH]1 [Compound 30] | 10 to 50 nM |  |  | 1 to 5 | 150 to 1000 |
| CCC(=O)Nc1ccc(Sc2nc(Nc3cc(C)n[nH]3)cc(N3CC(C)(OC(C)(C)C)C3)n2)cc1 [Compound 96] | 10 to 50 nM and < 25 nM |  |  | 1 to 5 | 50 to 150 |

| SMILES | Ki (Aurora-1 (Aurora B)) | Ki (Aurora-2 (Aurora A)) [nM] | Ki (FLT-3) [nM] | Ki (Aurora-2 (Aurora A); [1]) [nM] | Ki (FLT-3; read-out: FLT-3 Ki value) [nM] |
| --- | --- | --- | --- | --- | --- |
| Cc1cc(Nc2cc(N3CCC3)nc(Sc3ccc4ccccc4c3)n2)n[nH]1 [Compound 25] | 50 to 2000 nM |  | ≤ 50 | 1 to 5 |  |
| Cc1cc(Nc2cc(N3CCC3)nc(Sc3ccc(C(=O)NCc4ccccc4)cc3)n2)n[nH]1 [Compound 19] | ≤ 10 nM | 5 to 200 | 150 to 1000 |  |  |
| Cc1cnc(Nc2cc(N3CCC3)nc(Sc3ccc(NC(=O)C4CC4)cc3)n2)s1 [Compound 4] | 50 to 2000 nM |  | 50 to 150 | 1 to 5 |  |
| Cc1cc(Nc2cc(N3CC(N4CCOCC4)C3)nc(Sc3ccc(NC(=O)C4(C(F)(F)F)CC4)cc3)n2)[nH]n1 [Compound 191] | ≤ 10 nM |  |  | ≤ 1 | 150 to 1000 |
| CCC(=O)Nc1ccc(Sc2nc(Nc3cc(C)n[nH]3)cc(N3CC(O)(C(C)(C)C)C3)n2)cc1 [Compound 81] | ≤ 10 nM |  |  | ≤ 1 | ≤ 50 |
| Cc1cc(Nc2cc(N3CCC3)nc(Sc3ccc(NC(=O)C(C)CC(F)(F)F)cc3)n2)[nH]n1 (stereo not drawn) [Compound 127] | 10 to 50 nM and < 25 nM |  |  | 1 to 5 | 150 to 1000 |
| Cc1cc(Nc2cc(N3CCC3)nc(Sc3ccc(NC(=O)NCc4ccccc4)cc3)n2)n[nH]1 [Compound 74] | 50 to 2000 nM |  | 50 to 150 | 5 to 200 |  |
| CCC(=O)Nc1ccc(Sc2nc(Nc3cc(C)n[nH]3)cc(N3CC(C)(OC(C)C)C3)n2)cc1 [Compound 95] | 10 to 50 nM and < 25 nM |  | 50 to 150 | 1 to 5 |  |
| Cc1cc(Nc2cc(N3CC(F)(C4CC4)C3)nc(Sc3ccc(-c4ncc(C)o4)cc3)n2)[nH]n1 [Compound 175] | 50 to 2000 nM |  | 150 to 1000 | 5 to 200 |  |
| Cc1ccc(S(=O)(=O)Nc2ccc(Sc3nc(Nc4cc(C)[nH]n4)cc(N4CCC4)n3)cc2)cc1 [Compound 27] | 50 to 2000 nM | 1 to 5 | 50 to 150 |  |  |
| CCC(=O)Nc1ccc(Sc2nc(Nc3cc(C4CC4)n[nH]3)cc(N3CC(N4CCOCC4)C3)n2)cc1 [Compound 78] | ≤ 10 nM |  | ≤ 50 | ≤ 1 |  |
| Cc1ccc(C(=O)Nc2ccc(Sc3nc(Nc4cc(C)[nH]n4)cc(N4CCC4)n3)cc2)cc1 [Compound 28] | 10 to 50 nM | 1 to 5 | 150 to 1000 |  |  |
| Cc1cc(Nc2cc(N3CCC3)nc(Oc3ccc(NC(=O)c4ccccc4C(F)(F)F)cc3)n2)[nH]n1 [Compound 134] | 10 to 50 nM and < 25 nM |  | 50 to 150 | 1 to 5 |  |
| Cc1cc(Nc2cc(N3CC(F)(C4CC4)C3)nc(Sc3ccc4nc(C(F)(F)F)cn4c3)n2)[nH]n1 [Compound 190] | 10 to 50 nM |  | 150 to 1000 | 1 to 5 |  |
| Cc1cc(Nc2cc(N3CCC3)nc(Sc3ccc(NC(=O)Cc4cccc(Cl)c4)cc3)n2)[nH]n1 [Compound 58] | 10 to 50 nM and < 25 nM |  |  | 1 to 5 | 150 to 1000 |
| Cc1cc(Nc2cc(N3CC(F)(C4CC4)C3)nc(Sc3ccc4nc(C(F)(F)F)[nH]c4c3)n2)[nH]n1 [Compound 202] | 10 to 50 nM and < 25 nM |  | ≤ 50 | 1 to 5 |  |
| Cc1cc(Nc2cc(N3CC(N4CCCC4)C3)nc(Sc3ccc4ncccc4c3)n2)n[nH]1 [Compound 159] | ≤ 10 nM |  | ≤ 50 | 1 to 5 |  |
| Cc1cc(Nc2cc(N3CCC3)nc(Sc3ccc(NS(C)(=O)=O)cc3)n2)[nH]n1 [Compound 150] | 50 to 2000 nM |  |  | 5 to 200 | ≤ 50 |
| Cc1cc(Nc2cc(N3CCC3)nc(Sc3ccc(NC(=O)CC(F)(F)F)cc3)n2)n[nH]1 [Compound 40] | ≤ 10 nM |  | 50 to 150 | ≤ 1 |  |
| CCC(=O)Nc1ccc(Sc2nc(C#CC(C)(C)N3CCC3)cc(Nc3cc(C)n[nH]3)n2)cc1 [Compound 77] | 50 to 2000 nM |  | 150 to 1000 | 1 to 5 |  |
